Measurements reported in US6191135A, “Neurokinin antagonists” (Boehringer Ingelheim KG, priority 1994, dated 2001).

These compounds were tested against T1, NK1 -receptor (substance P-receptor) (Homo sapiens, UniProt P25103) (assay: NK1-receptor affinity: displacement of 125I labelled substance P on intact human lymphoblastoma cells (IM-9)). Conditions: intact human lymphoblastoma cells (IM-9) expressing NK1-receptors, read-out: Ki.
T1 construct: intact human lymphoblastoma cells (IM-9) which express NK1 -receptors; endogenous in cells; host or cells: IM-9 human lymphoblastoma cells
Format: binding
Procedure: The receptor affinity for the NK1 -receptor (substance P-receptor) was determined on intact human lymphoblastoma cells (IM-9) which express NK1 -receptors, and the displacement of ^125 I labelled substance P was measured.

T1 sequence (P25103 whole entry): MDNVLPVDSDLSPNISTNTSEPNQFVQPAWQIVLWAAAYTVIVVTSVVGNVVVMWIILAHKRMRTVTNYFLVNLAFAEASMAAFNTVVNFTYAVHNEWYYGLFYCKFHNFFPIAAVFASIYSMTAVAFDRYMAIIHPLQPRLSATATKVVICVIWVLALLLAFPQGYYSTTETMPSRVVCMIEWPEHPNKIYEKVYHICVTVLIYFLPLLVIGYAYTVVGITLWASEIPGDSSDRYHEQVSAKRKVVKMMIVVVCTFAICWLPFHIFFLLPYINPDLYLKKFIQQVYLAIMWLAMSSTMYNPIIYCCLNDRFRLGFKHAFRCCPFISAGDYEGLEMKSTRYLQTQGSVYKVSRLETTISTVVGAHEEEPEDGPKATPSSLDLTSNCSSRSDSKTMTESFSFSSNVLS

Ki [nM]	Structure (SMILES)
888	COc1ccccc1C(CNC(=O)Nc1cc(C(F)(F)F)cc(C(F)(F)F)c1)N1CCCC(C)C1 (stereo not shown) [Example 169]
84	COc1ccccc1C(CNC(=O)Nc1cc(C(F)(F)F)cc(C(F)(F)F)c1)N1CCC(C)CC1 (stereo not shown) [Example 170]
898	COc1ccccc1C(CNC(=O)Nc1cc(C(F)(F)F)cc(C(F)(F)F)c1)N1CCC(C2CCCCC2)CC1 (stereo not shown) [Example 171, N-3,5-Bistrifluoromethylphenyl-N'-[2-(2-methoxyphenyl)-2-(4-cyclohexylpiperidin-1-yl)-ethyl]-urea]
173	COc1ccccc1C(CNC(=O)Nc1cc(C(F)(F)F)cc(C(F)(F)F)c1)N1CC(C)CC(C)C1 (stereo not shown) [Example 172]
230	COc1ccccc1C(CNC(=O)Nc1cc(C(F)(F)F)cc(C(F)(F)F)c1)N1CCC(Cc2ccccc2)CC1 (stereo not shown) [Example 175, N-3,5-Bistrifluoromethylphenyl-N'-[2-(2-methoxyphenyl)-2-(4-benzylpiperidin-1-yl)-ethyl]-urea]
10	COc1ccccc1C(CNC(=O)Nc1cc(C(F)(F)F)cc(C(F)(F)F)c1)N1CCC(N2CCCCC2)CC1 (stereo not shown) [Example 177, N-3,5-Bistrifluoromethylphenyl-N'-[2-(2-methoxyphenyl)-2-(4-piperidin-1-yl)-piperidin-1-yl-ethyl]-urea]

Structure (SMILES)	Ki [nM]
COc1ccccc1C(CNC(=O)Nc1cc(C(F)(F)F)cc(C(F)(F)F)c1)N1C2CCCC1CC2 (stereo not shown) [Example 176, N-3,5-Bistrifluoromethylphenyl-N'-[2-(2-methoxyphenyl)-2-(nortropan-8-yl)-ethyl]-urea]	92
